The values below come from paper PMC6013238, “Development of novel NEMO-binding domain mimetics for inhibiting IKK/NF-κB activation” (PLoS Biology, 2018).

The test system of one data set is NF-κB activation. As to the kind of experiment: Dual-luciferase (NF-κB firefly/SV40-Renilla) reporter assay, TNF-α-stimulated HEK293 cells. Type of data set: cell-based, human. To be noted: for Relative luciferase activity (NF-κB/Renilla): Fig 4B, CTRL about 1; for NF-κB luciferase activity, dose-dependent curve: Fig S1A, CTRL about 100; for IC50: Homo sapiens, HEK293, luciferase assays at 0, 25, 50, 100, 150 μM, GraphPad, read-out: IC50 of inhibition of TNF-α-mediated NF-κB activation. (In general: In a reporter assay the amount or activity of a reporter protein is the signal.)

A further data set has as its system mdx mice. As to the kind of experiment: Chronic treatment of mdx mice, laminin stain and minimum Feret diameter of myofibers. The data set is classed as in vivo, mouse. The settings on record: Fig 7F, TA muscle, 4 wk treatment, single mice. The text has this: Fig 7 NBD mimetics improve muscular pathology and grip strength in mdx mice. (A) Shown is the treatment regimen with NBD mimetics in mdx mice. (B) Hematoxylin–eosin staining of TA muscle from 7-wk-old, treated or untreated mdx mice. Images were taken at magnification of 20×. Representative images were shown for each treatment group. […] (E) TA muscle from 7-wk-old, treated or untreated mdx mice was stained with laminin by IHC to outline myofibers. Overall images of TA muscle were shown on the left side, and the inset panel images were shown on the right side. (F) Quantitation of minimum Feret diameter in centrally and noncentrally nucleated myofibers. (G) Forelimb force determined by grip strength test. Five-wk-old (2 wk post treatment) and 7-wk-old (4 wk post treatment) mdx mice, treated or untreated, were tested for forelimb grip strength. Five sequential tests were performed, and the force was normalized to body weight. Data were shown as mean +/− SEM. Dosages used are as follows: SR12343 (30 mg/kg), SR12460 (30 mg/kg), and 8K-NBD peptide (10 mg/kg). n = 6–7 each group. *P < 0.05, **P < 0.01. Underlying data can be found in S1 Data. eMyHC, embryonic myosin heavy chain; IHC, immunohistochemistry; NBD, NEMO-binding domain; NEMO, NF-κB essential modulator; Pax7, paired box protein 7; qRT-PCR, quantitative real-time polymerase chain reaction; TA, tibialis anterior.
To determine whether SR12343 and SR12460 improve muscle pathology, TA muscle was stained with hematoxylin–eosin to assess inflammatory infiltration, necrosis, central nucleation, and fibrosis. […] In addition, Masson trichrome stain was conducted to further measure muscle fibrosis. Chronic treatment with SR12343 reduced muscle fibrosis (blue) in diaphragm and TA muscle tissues in comparison to control group (Fig 8A & 8B). To further quantitate the extent of inflammation in mdx muscle tissues, diaphragm and TA muscle were immunostained for cluster of differentiation 68 (CD68), a macrophage marker. Treatment with SR12343 reduced the number of CD68^+ cells by almost 50% per myofiber in both diaphragm and TA tissues (Fig 8A & 8B). […] To quantify the average fiber size in an unbiased way, TA muscle was stained with laminin to outline myofibers, and Feret diameter of all myocytes was quantitated in a whole muscle section.
To ensure rigorous quantitation of average fiber size, TA muscle was stained with laminin to outline myofibers. […] Centrally nucleated fibers were determined by first eroding the binary mask of the muscle fibers so that only the central portion of each fiber was present. […] Using the original muscle fiber mask, Feret diameters for centrally nucleated and noncentrally nucleated fibers were then measured.

Data set [1] can be described thus: Serum AST, ALT and ALP of chronically treated mdx mice. To be noted: for Liver toxicity (serum AST, ALT, ALP): chronically treated mdx mice, 30 mg/kg; for ALP Final Concentration / ALT Final Concentration / AST Final Concentration: serum, individual mouse (FigS3B). Type of data set: in vivo, mouse.

Molecules are shown by their SMILES. Where “and” joins values, the source holds several entries; their conditions need not be identical. Identical values can stand only once.

As to `O=C(CNc1ccc(Cl)cn1)NCCc1cccc(Br)c1` [SR12343], in the data set on NF-κB activation (25 μM), the “Relative luciferase activity (NF-κB/Renilla)” value (“Relative luciferase activity” for short) was 0.621 and 0.6268 and 0.6057; the “NF-κB luciferase activity, dose-dependent curve” value (“NF-κB luciferase activity” for short) is 62 and 63 and 60. Also, in the data set with NF-κB activation (50 μM), the “Relative luciferase activity” value was 0.3824 and 0.4086 and 0.3925; the “NF-κB luciferase activity” value was 38 and 41 and 39. Besides, in the data set with NF-κB activation (100 μM), the “Relative luciferase activity” value was 0.327 and 0.2292 and 0.2181; the “NF-κB luciferase activity” value was 33 and 23 and 22. Besides, the IC50 in the data set on NF-κB activation is 37 µM. Also, in the data set with mdx mice, the “Feret 90's of non-centrally nucleated fibers” value is 30.77 and 40.26 and 44.29 and 46.1; the “Feret's of centrally nucleated fibers” value is 29.8 and 35.12 and 37.33 and 39.93. Also, in data set [1], the “Liver toxicity (serum AST, ALT, ALP)” value is “no overt liver toxicity”; the “ALP Final Concentration” value was 170 U/L and 225 U/L and 145 U/L; the “ALT Final Concentration” value is 125 U/L and 160 U/L and 150 U/L and 260 U/L; the “AST Final Concentration” value was 775 U/L and 1030 U/L and 875 U/L and 1560 U/L.

Consider `O=C(CNCCc1cc(F)cc(F)c1)Nc1ccc(Cl)cn1` [SR12460], for which, in the data set with NF-κB activation (25 μM), the “Relative luciferase activity” value was 0.1864 and 0.2241 and 0.2663; the “NF-κB luciferase activity” value is 18.6398 and 22.411 and 26.6317. Besides, in the data set with NF-κB activation (50 μM), the “Relative luciferase activity” value is 0.09822 and 0.1016 and 0.1003; the “NF-κB luciferase activity” value is 9.822 and 10.1552 and 10.0281. Also, in the data set with NF-κB activation (100 μM), the “Relative luciferase activity” value is 0.1076 and 0.0851 and 0.1209; the “NF-κB luciferase activity” value is 10.7557 and 8.5097 and 12.0922. In the data set on NF-κB activation (150 μM), the “Relative luciferase activity” value is 0.09311 and 0.129 and 0.1129; the “NF-κB luciferase activity” value was 9.311 and 12.8976 and 11.2908. The IC50 in the data set with NF-κB activation came to 11.3 µM. Besides, in the data set on mdx mice, the “Feret 90's of non-centrally nucleated fibers” value is 42.38 and 57.7 and 50.27 and 41.83 and 37.95; the “Feret's of centrally nucleated fibers” value is 36.18 and 50.79 and 43.17 and 46.06 and 34.34. Moreover, in data set [1], the “Liver toxicity (serum AST, ALT, ALP)” value is listed as “no overt liver toxicity”; the “ALP Final Concentration” value was 195 U/L and 170 U/L and 160 U/L; the “ALT Final Concentration” value is 215 U/L and 185 U/L; the “AST Final Concentration” value is 1245 U/L and 1330 U/L and 1415 U/L.

The term IC50 denotes the concentration at which inhibition is half-maximal.
